Efficacy in % and chromatographic logP data for 4 molecules are collected here from patent US20050222173A1, “Triazolopyrimidines” (priority 2002, published 2005).

Broadly, the chromatographic logP is lipophilicity estimated from chromatographic retention. Read a low chromatographic logP as lower lipophilicity.

The subject of data set [1] is Pyricularia oryzae. Type of data set: in vivo. The following applies: rice, protective, application rate 250 g/ha, evaluation 6 days after inoculation.
Data set [2] in a line: physchem.

In data set [1], `C[C@H](Nc1c(-c2ccccc2Cl)c(Cl)nc2nc(Cl)nn12)C(F)(F)F` registered an Efficacy in % of 100%.

Turning to `C[C@H](Nc1c(-c2c(F)cccc2Cl)c(Cl)nc2nc(Cl)nn12)C(F)(F)F` [drawing 69], the Efficacy in % in data set [1] was found to be 100%.

For the molecule `Fc1cc(F)c(-c2c(Cl)nc3nc(Cl)nn3c2Cl)c(F)c1` [Example 179, 2,5,7-Trichloro-6-(2,4,6-trifluorophenyl)[1,2,4]triazolo[1,5-a]pyrimidine], the chromatographic logP in data set [2] stood at 3.28.

As to `CC(C)Nc1c(-c2ccccc2Cl)c(Cl)nc2nc(Cl)nn12` [Example 1, N-[2,5-dichloro-6-(2-chlorophenyl)[1,2,4]triazolo[1,5-a]pyrimidin-7-yl]-N-isopropylamine], the chromatographic logP in data set [2] was determined as 3.43.
